The numbers were not newly measured in patent publication US6506600B2, “Secreting products from skin by adeno-associated virus (AAV) gene transfer” (University of Arkansas, priority 2000, dated 2003), which cites them from elsewhere.

In one data set the test system is neutrophil count. To be noted: patients with neutropenia due to chemotherapy; initial dose 5 microg/kg/day.
The next data set deals with neutropenia. To be noted: neonates <32 weeks gestation; 10 μg/kg/d subcutaneous for 5 days.
In data set [1] the test system is pulmonary alveolar proteinosis. To be noted: four PAP patients; subcutaneous once daily for 12 wk, 3 to 9 μg/kg/d.

Regarding “granulocyte macrophage colony stimulating factor [GM-CSF]”, the “rise of neutrophil count (median)” value in the data set with neutrophil count is reported as 6.6 fold. Further, the effect on neutropenia result in the data set on neutropenia is “completely abolished neutropenia”. The “symptomatic, physiologic and radiographic response” value in data set [1] was “Three of the four patients experienced symptomatic, physiologic, and radiographic improvement”. For the same substance, the serum half-life (serum) is 8 h.

In the case of hGH: human growth hormone, 22 kDa, the t1/2 (in vivo) was 4 min.
